Measured values taken from patent US8951999B2, “Compounds” (Orexo AB, priority 2009, dated 2015).
pIC50: −log10 of the molar value.

The molecules below were run against T1, recombinant human mPGES-1 (Homo sapiens, UniProt O14684) (assay: Assay B: mPGES-1 enzyme assay (modified)). Conditions: biological assay B (all other compounds); PGH2 final conc. 2 μM, HTRF; read-out: mPGES-1 inhibitory effect IC50.
T1 sequence (O14684 1-152): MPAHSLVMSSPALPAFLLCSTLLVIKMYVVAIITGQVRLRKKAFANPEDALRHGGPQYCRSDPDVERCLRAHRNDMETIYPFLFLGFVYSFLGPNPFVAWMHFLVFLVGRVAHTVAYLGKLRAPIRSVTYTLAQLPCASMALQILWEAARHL
Assay type: biochemical
Procedure: Assay B: mPGES-1 Enzyme Assay (Modified)
The aim of this assay is to determine the affinity of a test compound for the mPGES-1 enzyme.
47 μl of recombinant human mPGES-1 (˜0.5 μg protein/well) containing microsomal suspension in a buffer containing GSH, (2.5 mmol/L L-Glutathione reduced, dissolved in 0.1 mol/L Phosphat Buffer pH 7.4) is dispensed in a 384-well plate and thereafter 1 μl of the test compound(s) is/are added and incubated for 25 minutes at room temperature. The enzyme reaction is started by the addition of 2 ul PGH2 (final conc. 2 μM) dissolved in water-free Diglyme. After 60 seconds the reaction is terminated by addition of a stop solution containing FeCl2 (10 μL 0.074 mol/l FeCl2). The samples are diluted between 1:25 in PBS (Phosphate Buffered Saline). 10 μl of the diluted samples are transferred to 384-well low volume plate. In order to quantify the amount of PGE2 that has been formed, a homogenous time resolved fluorescent (HTRF) detecting of PGE2 has been performed using a commercially available kit from Cisbio according to the manufactures recommendation. This HTRF-based assay has been described in detail (see: Goedken et al., J Biomol Screen, 2008, 13(7), 619-625). Briefly, the diluted samples are mixed with […] PGE2-d2 conjugate and 5 μl anti-PGE2 cryptate conjugate. After an incubation period of the plates over night, the fluorescence is measured by the use of an appropriate microplate reader.
The fluorescence of Europium cryptate (maxex=307 nm, maxem=620 nm) and d2-PGE2 (maxex=620 nm, maxem=665 nm) are measured.
The extent of the specific HTRF is measured as a ratio of the emission intensity at 665 nm vs. that at 620 nm at an excitation pulse of 320 nm. The quantification plate contains also wells with different concentrations of PGE2 as calibration curve for the calculation of the PGE2 concentrations from the HTRF ratio values.
From all mPGES enzyme assay the background is subtracted and the IC50 is calculated over a nonlinear regression with conventional software.

pIC50 | SMILES
8.30 | CC(C)(C(=O)NCc1ccc(Cl)c(C(=O)Nc2ccc(OCC(F)F)c(C(=O)NCC3CCCCC3)c2)c1)C(F)(F)F [Example 129]
6.82 | CC1(NC(=O)c2cc(NC(=O)c3c(Cl)ccc(CNC(=O)C(C)(C)C(F)(F)F)c3Cl)ccc2OCC(F)F)CCOCC1 [Example 155]
8.22 | CC(C)(C(=O)NCc1ccc(Cl)c(C(=O)Nc2ccc(OCC(F)F)c(C(=O)NC3CCC(C(F)F)CC3)c2)c1)C(F)(F)F (centres unmarked) [Example 142]
8.05 | O=C(Nc1ccc(OCC(F)F)c(C(=O)Nc2ccc(Br)cc2)c1)c1cc(CNC(=O)C(O)C(F)(F)F)ccc1Cl (centres unmarked) [Example 169]
8.10 | NC(C(=O)NCc1ccc(Cl)c(C(=O)Nc2ccc(OCC(F)F)c(C(=O)Nc3ccc(Br)cc3)c2)c1)C(F)(F)F (centres unmarked) [Example 174]
6.98 | Cc1nc(C(=O)NCc2ccc(Cl)c(C(=O)Nc3ccc(OCC(F)F)c(C(=O)Nc4ccc(Br)cc4)c3)c2)c(C)s1 [Example 168]
8.00 | CC(C)(C(=O)NCc1ccc(Cl)c(C(=O)Nc2ccc(OCC(F)F)c(C(=O)Nc3ccc(F)c(Cl)c3)c2)c1Cl)C(F)(F)F [Example 145, N-[4-(2,2-difluoroethyl)oxy-3-(4-fluoro-3-chlorophenyl)aminocarbonyl-phenyl]-2,6-dichloro-3-[(2,2,2-trifluoro-1,1-dimethyl-ethyl)carbonylamino]methyl-benzamide]
8.05 | CC(C)C(O)C(=O)NCc1ccc(Cl)c(C(=O)Nc2ccc(OCC(F)F)c(C(=O)Nc3ccc(Br)cc3)c2)c1 (centres unmarked) [Example 175]
8.05 | CC(C)(C(=O)NCc1ccc(Cl)c(C(=O)Nc2ccc(OCC(F)F)c(C(=O)Nc3ccncc3Cl)c2)c1)C(F)(F)F [Example 137]
7.89 | CN1CCC[C@H]1C(=O)NCc1ccc(Cl)c(C(=O)Nc2ccc(OCC(F)F)c(C(=O)Nc3ccc(Br)cc3)c2)c1 [Example 161]
8.15 | CC(NC(=O)c1cc(NC(=O)c2c(Cl)ccc(CNC(=O)C(C)(C)C(F)(F)F)c2Cl)ccc1OCC(F)F)C(F)(F)F (centres unmarked) [Example 159]
8.22 | CC(C)(C(=O)NCc1ccc(Cl)c(C(=O)Nc2ccc(OCC(F)F)c(C(=O)NCc3ccccc3OC(F)(F)F)c2)c1)C(F)(F)F [Example 132]
8.30 | CC(C)(C(=O)NCc1ccc(Cl)c(C(=O)Nc2ccc(OCC(F)F)c(C(=O)NCC3CCC3)c2)c1)C(F)(F)F [Example 141]
8.40 | CC(C)(C(=O)NCc1ccc(Cl)c(C(=O)Nc2ccc(OCC(F)F)c(C(=O)Nc3ccc(OC(F)(F)F)c(Cl)c3)c2)c1)C(F)(F)F [Example 130]
8.30 | Cc1ccc(Cl)cc1NC(=O)c1cc(NC(=O)c2c(Cl)ccc(CNC(=O)C(C)(C)C(F)(F)F)c2Cl)ccc1OCC(F)F [Example 153]

Further lines, the molecule ahead of its results:

SMILES | pIC50
CC(C)(C)C(=O)NCc1ccc(Cl)c(C(=O)Nc2ccc(OCC(F)F)c(C(=O)N[C@H]3CC[C@H](C(F)(F)F)CC3)c2)c1Cl [Example 48, N-[4-(2,2-Difluoroethyl)oxy-3-[trans-(4-trifluoromethylcyclohexyl)amino]carbonylphenyl]-2,6-dichloro-3-(tert-butylcarbonylamino)methyl-benzamide] | 8.22
CC(C)(C(=O)NCc1ccc(Cl)c(C(=O)Nc2ccc(OCC(F)F)c(C(=O)Nc3nc4c(s3)CCC4)c2)c1)C(F)(F)F [Example 127] | 7.72
CC(C)(C(=O)NCc1ccc(Cl)c(C(=O)Nc2ccc(OCC(F)F)c(C(=O)Nc3cc(F)cc(Cl)c3)c2)c1)C(F)(F)F [Example 113] | 8.40
CC(C)(C)C(=O)NCc1ccc(Cl)c(C(=O)Nc2cnc(OCC(F)F)c(C(=O)Nc3cc(F)cc(Cl)c3)c2)c1Cl [Example 75, N-[2-(2,2-Difluoroethoxy)-3-(3-chloro-5-fluorophenyl)aminocarbonyl-pyridin-5-yl]-2,6-dichloro-5-(tert-butylcarbonylamino)methyl-benzamide] | 8.22
COCC1(CNC(=O)c2cc(NC(=O)c3cc(CNC(=O)C(C)(C)C(F)(F)F)ccc3Cl)ccc2OCC(F)F)CCCC1 [Example 88] | 8.05
CC(C)(C(=O)NCc1ccc(Cl)c(C(=O)Nc2ccc(OCC(F)F)c(C(=O)NCc3ccc(F)cc3C(F)(F)F)c2)c1)C(F)(F)F [Example 89] | 8.40
COCCOc1ccc(NC(=O)c2cc(CNC(=O)C(C)(C)C(F)(F)F)ccc2Cl)cc1C(=O)N[C@H]1CC[C@H](C(F)(F)F)CC1 [Example 64] | 8.40
COc1cc(Cl)ccc1NC(=O)c1cc(NC(=O)c2cc(CNC(=O)C(C)(C)C(F)(F)F)ccc2Cl)ccc1OCC(F)F [Example 91] | 8.22
CC(C)(C)C(=O)NCc1ccc(F)c(C(=O)Nc2cnc(OCC(F)F)c(C(=O)Nc3ccc(Br)cc3)c2)c1F [Example 74] | 7.33
CC(C)(C(=O)NCc1ccc(Cl)c(C(=O)Nc2ccc(OCC(F)F)c(C(=O)Nc3ccc(Br)c(Cl)c3)c2)c1)C(F)(F)F [Example 105] | 8.30
CC(C)(C(=O)NCc1ccc(Cl)c(C(=O)Nc2ccc(OCC(F)F)c(C(=O)Nc3ccc(Cl)c(F)c3)c2)c1)C(F)(F)F [Example 108] | 8.30
CC(C)(C(=O)NCc1ccc(Cl)c(C(=O)Nc2ccc(N3CCC(C(F)(F)F)CC3)c(C(=O)NCC3CC3)c2)c1Cl)C(F)(F)F [Example 59, N-[4-(4-Trifluoromethyl-piperidin-1-yl)-3-(cyclopropylmethyl)aminocarbonyl-phenyl]-2,6-dichloro-3-[(2,2,2-trifluoro-1,1-dimethyl-ethyl)carbonylamino]methyl-benzamide] | 8.30
COCCOc1ccc(NC(=O)c2cc(CNC(=O)C(C)(C)C(F)(F)F)ccc2Cl)cc1C(=O)Nc1ccc(Br)cc1 [Example 72] | 8.40
CC1CCC(NC(=O)c2cc(NC(=O)c3cc(CNC(=O)C(C)(C)C(F)(F)F)ccc3Cl)ccc2OCC(F)F)CC1 (centres unmarked) [Example 96] | 8.30
CC(C)(C(=O)NCc1ccc(Cl)c(C(=O)Nc2ccc(OCC(F)F)c(C(=O)N[C@H]3CC[C@H](C(F)(F)F)CC3)c2)c1)C(F)(F)F [Example 82, N-[4-(2,2-difluoroethyl)oxy-3-(trans-4-trifluoromethylcyclohexyl)aminocarbonyl-phenyl]-2-chloro-5-[(2,2,2-trifluoro-1,1-dimethyl-ethyl)carbonylamino}methyl-benzamide] | 8.10
CC(C)(C)C(=O)NCc1ccc(F)c(C(=O)Nc2ccc(OCC(F)F)c(C(=O)N[C@H]3CC[C@H](C(F)(F)F)CC3)c2)c1F [Example 50] | 7.47
CC(C)(C(=O)NCc1ccc(Cl)c(C(=O)Nc2ccc(OCC(F)F)c(C(=O)Nc3nc4ccc(Cl)cc4s3)c2)c1)C(F)(F)F [Example 93] | 8.15
CNC(=O)c1cc(NC(=O)c2cc(CNC(=O)C(C)(C)C(F)(F)F)ccc2Cl)ccc1OCC(F)F [Example 97] | 7.10
CC(C)(C(=O)NCc1ccc(Cl)c(C(=O)Nc2ccc(OCC(F)F)c(C(=O)Nc3ccc(Cl)cc3Cl)c2)c1)C(F)(F)F [Example 94] | 8.22
CC(C)(C(=O)NCc1ccc(Cl)c(C(=O)Nc2ccc(N3CCC(F)CC3)c(C(=O)Nc3ccc(F)c(Cl)c3)c2)c1F)C(F)(F)F [Example 57, N-[4-(4-Fluoro-piperidin-1-yl)-3-(3-chloro-4-fluorophenyl)aminocarbonyl-phenyl]-2-fluoro-6-chloro-3-[(2,2,2-trifluoro-1,1-dimethyl-ethyl)carbonylamino]methyl-benzamide] | 8.70
CC(C)(C(=O)NCc1ccc(Cl)c(C(=O)Nc2ccc(OC3CCOC3)c(C(=O)N[C@H]3CC[C@H](C(F)(F)F)CC3)c2)c1)C(F)(F)F (some centres unmarked) [Example 67] | 8.30
CC(C)(C)NC(=O)c1cc(NC(=O)c2c(Cl)ccc(CNC(=O)C(C)(C)C(F)(F)F)c2F)ccc1OCC(F)F [Example 78] | 8.70
COc1cc(NC(=O)c2cc(NC(=O)c3cc(CNC(=O)C(C)(C)C(F)(F)F)ccc3Cl)ccc2OCC(F)F)ccc1Br [Example 120] | 8.15
CC(C)(C(=O)NCc1ccc(Cl)c(C(=O)Nc2ccc(OCC(F)F)c(C(=O)NC3CCSCC3)c2)c1)C(F)(F)F [Example 90] | 8.05
CC(C)(C)C(=O)NCc1ccc(Cl)c(C(=O)Nc2ccc(OC3CCOC3)c(C(=O)Nc3ccc(Br)cc3)c2)c1 (centres unmarked) [Example 66, N-[4-(Tetrahydrofuran-3-yloxy)-3-(4-bromophenyl)aminocarbonyl-phenyl]-2-chloro-5-(tert-butyl-carbonylaminomethyl)-benzamide] | 8.30
CC(C)(C(=O)NCc1ccc(Cl)c(C(=O)Nc2ccc(OCC(F)F)c(C(=O)Nc3ccc(Br)cc3)c2)c1Cl)C(F)(F)F [Example 47, N-[4-(2,2-Difluoroethyl)oxy-3-(4-bromophenyl)aminocarbonyl-phenyl]-2,6-dichloro-3-(2,2,2-trifluoro-1,1-dimethyl-ethyl)carbonylaminomethyl-benzamide] | 8.22
